In US8119695B2, “Compounds and methods for treating breast cancer and other diseases” (City of Hope, priority 2003, dated 2012):

Legend:
Type in all cases: cell-based
ERRα (GAL-ERRa) = test: MH100x4 luciferase reporter with GAL-ERRa; design: Reporter Activity: unit not given here
Text: (§1) MH100x4 is a luciferase reporter with four copies of a GAL4 […] response element. GAL-L refers to the ligand-binding domain of the indicated receptor fused to the C-terminus of the GAL4 DNA binding domain.

ERRγ (GAL-ERRg) = test: MH100x4 luciferase reporter with GAL-ERRg; design: Reporter Activity: unit not given here; conditions: for Fold Activation / Reporter Activity: Table 3, dose 2.5 (unit not given); for Fold Activation: None 1; for Reporter Activity: None 2.2
Text: as §1

ERα (ERa) = target: T1, ERα (ERa) (Homo sapiens, UniProt P03372); test: ERE-TK-luc reporter with ERa, E2 100 nM; conditions: Table 6, None 3.43
T1 construct: expressed in transfected cells
T1 sequence (P03372 1-595): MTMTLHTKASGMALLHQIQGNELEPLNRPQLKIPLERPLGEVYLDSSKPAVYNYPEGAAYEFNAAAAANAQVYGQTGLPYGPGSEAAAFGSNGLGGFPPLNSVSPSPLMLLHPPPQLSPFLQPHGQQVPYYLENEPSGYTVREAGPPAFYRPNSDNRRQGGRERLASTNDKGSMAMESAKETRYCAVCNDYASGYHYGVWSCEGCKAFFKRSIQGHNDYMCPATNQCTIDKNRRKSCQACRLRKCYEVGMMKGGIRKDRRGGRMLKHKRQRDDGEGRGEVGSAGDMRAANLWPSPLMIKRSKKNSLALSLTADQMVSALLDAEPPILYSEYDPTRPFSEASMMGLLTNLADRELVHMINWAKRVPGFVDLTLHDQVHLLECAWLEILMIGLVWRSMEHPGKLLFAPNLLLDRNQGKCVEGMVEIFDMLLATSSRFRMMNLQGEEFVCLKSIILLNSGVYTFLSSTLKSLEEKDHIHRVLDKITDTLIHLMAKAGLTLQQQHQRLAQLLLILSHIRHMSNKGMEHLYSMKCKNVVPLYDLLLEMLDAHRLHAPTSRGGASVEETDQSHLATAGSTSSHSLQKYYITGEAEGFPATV

ERRβ (GAL-L-ERRb) = target: T2, ERRβ (GAL-L-ERRb) (Homo sapiens, UniProt O95718); test: MH100x4 luciferase reporter with GAL-L-ERRb; design: Reporter Activity: unit not given here
T2 construct: expressed in transfected cells
T2 sequence (O95718 208-432 limits assumed): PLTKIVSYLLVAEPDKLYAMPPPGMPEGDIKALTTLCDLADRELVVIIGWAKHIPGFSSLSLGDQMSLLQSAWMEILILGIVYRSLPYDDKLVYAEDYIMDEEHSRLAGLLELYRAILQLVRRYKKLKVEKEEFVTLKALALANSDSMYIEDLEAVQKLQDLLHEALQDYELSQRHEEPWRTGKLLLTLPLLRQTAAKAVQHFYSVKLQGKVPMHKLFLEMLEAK
Text: as §1

ERβ (ERb) = target: T3, ERβ (ERb) (Homo sapiens, UniProt Q92731); test: ERE-TK-luc reporter with ERb, E2 100 nM; conditions: Table 6, None 2.88
T3 construct: expressed in transfected cells

ERE-TK-luc = ERE-TK-luc reporter without receptor, E2 100 nM; conditions: Table 6; for Fold Activation: None 1.00; for Reporter Activity: None 1.44
ERRs = test: repression / antagonism of ERRs; conditions: result in words
MH100x4 = MH100x4 luciferase reporter without receptor; conditions: Table 3, dose 2.5 (unit not given); for Reporter Activity: None 0.57; for Fold Activation: None 1
Text: as §1

[1] = E2 100 nM + DY 40, head 0 μM (1st)
[2] = E2 100 nM + DY 40, head 0 μM (2nd)
[3] = Table 3, dose 2.5 (unit not given), None 1
[4] = Table 3, dose 2.5 (unit not given), None 8.18
[5] = Table 3, dose 2.5 (unit not given), None 2.38

T3 sequence (Q92731 whole entry, species assumed): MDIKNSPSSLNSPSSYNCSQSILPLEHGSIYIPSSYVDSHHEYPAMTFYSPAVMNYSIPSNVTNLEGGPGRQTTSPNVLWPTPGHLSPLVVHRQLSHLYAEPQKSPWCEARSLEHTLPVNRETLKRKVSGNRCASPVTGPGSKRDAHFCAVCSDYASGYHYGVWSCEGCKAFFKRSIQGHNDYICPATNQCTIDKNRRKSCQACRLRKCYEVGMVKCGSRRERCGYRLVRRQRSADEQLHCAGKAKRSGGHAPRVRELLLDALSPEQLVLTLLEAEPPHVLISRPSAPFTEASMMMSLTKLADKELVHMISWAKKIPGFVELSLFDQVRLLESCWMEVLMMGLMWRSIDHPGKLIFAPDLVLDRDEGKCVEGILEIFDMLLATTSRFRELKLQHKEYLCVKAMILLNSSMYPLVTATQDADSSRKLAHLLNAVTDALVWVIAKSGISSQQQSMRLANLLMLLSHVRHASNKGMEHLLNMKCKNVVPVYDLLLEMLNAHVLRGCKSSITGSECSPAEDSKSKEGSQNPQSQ

## CC(=O)Oc1ccc(/C(=C(/c2ccccc2)C(C)C)c2ccc(OCCN(C)C)cc2)cc1 [DY40, (E,Z)-4-{1-[4-(2-dimethylamino-ethoxy)-phenyl]-3-methyl-2-phenyl-but-1-enyl}-phenyl acetate]
ERRα (GAL-ERRa); Table 4, DY40 dose head 0 (1st of 3), None 1.23
  Fold Activation: 1.24
ERRα (GAL-ERRa); Table 4, DY40 dose head 0 (1st of 3), None 34.05
  Reporter Activity: 34.34
ERRα (GAL-ERRa); Table 4, DY40 dose head 0 (2nd of 3), None 1.23
  Fold Activation: 1.17
ERRα (GAL-ERRa); Table 4, DY40 dose head 0 (2nd of 3), None 34.05
  Reporter Activity: 32.4
ERRα (GAL-ERRa); Table 4, DY40 dose head 0 (3rd of 3), None 1.23
  Fold Activation: 1.23
ERRα (GAL-ERRa); Table 4, DY40 dose head 0 (3rd of 3), None 34.05
  Reporter Activity: 34
ERRα (GAL-ERRa); Table 4, dose 0.1 (unit not given), None 1/1.23
  Fold Activation: 1.3
ERRα (GAL-ERRa); Table 4, dose 0.1 (unit not given), None 27.7/34.05
  Reporter Activity: 37
ERRα (GAL-ERRa); Table 4, dose 0.3 (unit not given), None 1/1.23
  Fold Activation: 1.47
ERRα (GAL-ERRa); Table 4, dose 0.3 (unit not given), None 27.7/34.05
  Reporter Activity: 40.8
ERRα (GAL-ERRa); Table 4, dose 1 (unit not given), None 1/1.23
  Fold Activation: 0.98
ERRα (GAL-ERRa); Table 4, dose 1 (unit not given), None 27.7/34.05
  Reporter Activity: 27.3
ERRγ (GAL-ERRg)
  inhibition of the activity of ERRγ: inhibit the activity
  potency antagonizing ERRγ relative to 4-hydroxytamoxifen: about 30 fold
ERα (ERa); E2 100 nM + DY 40 0.01 μM
  Reporter Activity: 5.07
ERα (ERa); E2 100 nM + DY 40 0.03 μM
  Reporter Activity: 2.42
ERα (ERa); E2 100 nM + DY 40 0.1 μM
  Reporter Activity: 1.97
ERα (ERa); E2 100 nM + DY 40 0.3 μM
  Reporter Activity: 1.32
ERα (ERa); [1]
  Reporter Activity: 13.55
ERα (ERa); [2]
  Reporter Activity: 8.57
ERRβ (GAL-L-ERRb); Table 4, DY40 dose head 0 (1st of 3), None 1.2
  Fold Activation: 1.33
ERRβ (GAL-L-ERRb); Table 4, DY40 dose head 0 (1st of 3), None 8.67
  Reporter Activity: 9.61
ERRβ (GAL-L-ERRb); Table 4, DY40 dose head 0 (2nd of 3), None 1.2
  Fold Activation: 0.92
ERRβ (GAL-L-ERRb); Table 4, DY40 dose head 0 (2nd of 3), None 8.67
  Reporter Activity: 6.61
ERRβ (GAL-L-ERRb); Table 4, DY40 dose head 0 (3rd of 3), None 1.2
  Fold Activation: 0.7
ERRβ (GAL-L-ERRb); Table 4, DY40 dose head 0 (3rd of 3), None 8.67
  Reporter Activity: 5.07
ERRβ (GAL-L-ERRb); Table 4, dose 0.1 (unit not given), None 1/1.2
  Fold Activation: 0.2
ERRβ (GAL-L-ERRb); Table 4, dose 0.1 (unit not given), None 7.21/8.67
  Reporter Activity: 1.4
ERRβ (GAL-L-ERRb); Table 4, dose 0.3 (unit not given), None 1/1.2
  Fold Activation: 0.1
ERRβ (GAL-L-ERRb); Table 4, dose 0.3 (unit not given), None 7.21/8.67
  Reporter Activity: 0.73
ERRβ (GAL-L-ERRb); Table 4, dose 1 (unit not given), None 1/1.2
  Fold Activation: 0.08
ERRβ (GAL-L-ERRb); Table 4, dose 1 (unit not given), None 7.21/8.67
  Reporter Activity: 0.59
ERRβ (GAL-L-ERRb); greater than 4-hydroxytamoxifen
  potency antagonizing ERRβ relative to 4-hydroxytamoxifen: about 30 fold
ERRβ (GAL-L-ERRb); result in words
  inhibition of the activity of ERRβ: inhibit the activity
ERβ (ERb); E2 100 nM + DY 40 0.01 μM
  Reporter Activity: 3.19
ERβ (ERb); E2 100 nM + DY 40 0.03 μM
  Reporter Activity: 2.36
ERβ (ERb); E2 100 nM + DY 40 0.1 μM
  Reporter Activity: 1.58
ERβ (ERb); E2 100 nM + DY 40 0.3 μM
  Reporter Activity: 1.09
ERβ (ERb); [1]
  Reporter Activity: 9.37
ERβ (ERb); [2]
  Reporter Activity: 6.03
ERE-TK-luc; E2 100 nM + DY 40 0.01 μM
  Fold Activation: 1.03
  Reporter Activity: 1.48
ERE-TK-luc; E2 100 nM + DY 40 0.03 μM
  Fold Activation: 0.85
  Reporter Activity: 1.22
ERE-TK-luc; E2 100 nM + DY 40 0.1 μM
  Fold Activation: 0.69
  Reporter Activity: 0.99
ERE-TK-luc; E2 100 nM + DY 40 0.3 μM
  Fold Activation: 0.47
  Reporter Activity: 0.67
ERE-TK-luc; [1]
  Fold Activation: 0.90
  Reporter Activity: 1.29
ERE-TK-luc; [2]
  Fold Activation: 0.81
  Reporter Activity: 1.17

## CCCC(=C(c1ccc(O)cc1)c1ccc(O)cc1)c1ccccc1 [DY37]
ERRs
  repression of ERRs: does not repress ERRs

## Oc1ccc(C(=C(CCCCl)c2ccccc2)c2ccc(O)cc2)cc1 [DY31]
ERRα (GAL-ERRa); [3]
  Fold Activation: 1.06
ERRα (GAL-ERRa); [4]
  Reporter Activity: 8.71
ERRs
  repression of ERRs: does not repress ERRs
MH100x4
  Reporter Activity: 0.4
  Fold Activation: 0.7
ERRγ (GAL-ERRg)
  Fold Activation: 0.53
  Reporter Activity: 1.16
ERRβ (GAL-L-ERRb); [3]
  Fold Activation: 0.74
ERRβ (GAL-L-ERRb); [5]
  Reporter Activity: 1.75

## Oc1ccc(C(=C(CCCl)c2ccccc2)c2ccc(O)cc2)cc1 [DY30]
ERRα (GAL-ERRa); [3]
  Fold Activation: 1.03
ERRα (GAL-ERRa); [4]
  Reporter Activity: 8.46
ERRs
  repression of ERRs: does not repress ERRs
MH100x4
  Reporter Activity: 0.56
  Fold Activation: 0.98
ERRγ (GAL-ERRg)
  Fold Activation: 0.68
  Reporter Activity: 1.5
ERRβ (GAL-L-ERRb); [3]
  Fold Activation: 0.86
ERRβ (GAL-L-ERRb); [5]
  Reporter Activity: 2.04

## CC(C)C(=C(c1ccc(O)cc1)c1ccc(O)cc1)c1ccccc1 [DY34, 1,1-Bis(4-hydroxyphenyl)-2-phenylbut-3-methyl-1-ene]
ERRα (GAL-ERRa); [3]
  Fold Activation: 1.01
ERRα (GAL-ERRa); [4]
  Reporter Activity: 8.24
ERRs
  repression of ERRs: does not repress ERRs
ERRγ (GAL-ERRg)
  Fold Activation: 0.61
  Reporter Activity: 1.35
ERRβ (GAL-L-ERRb); [3]
  Fold Activation: 0.48
ERRβ (GAL-L-ERRb); [5]
  Reporter Activity: 1.15

## CCC(=C(c1ccc(O)cc1)c1ccc(O)cc1)c1ccccc1 [DY25, 1,1-Bis(4-hydroxyphenyl)-2-phenylbut-1-ene]
ERRs
  repression of ERRs: does not repress ERRs
